Experimental findings from article PMC8347162, “A Cyclic BMP-2 Peptide Upregulates BMP-2 Protein-Induced Cell Signaling in Myogenic Cells” (Polymers, 2021) are described below.

pKd: −log10 of the molar value. Where two headings read alike, the source gives them in different places. Positions of bridges follow the written chain, without caps; N, C: chain ends. Residues, ends and D or L forms follow the SMILES beside them.

For the assay, the target named is T1, BMPRII (Homo sapiens, UniProt Q13873).
T1 construct: purchased R&D
T1 sequence (Q13873 27-151 limits assumed): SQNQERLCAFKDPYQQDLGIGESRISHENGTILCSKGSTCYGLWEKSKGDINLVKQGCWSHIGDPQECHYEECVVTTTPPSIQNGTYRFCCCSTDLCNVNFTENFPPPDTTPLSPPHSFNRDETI
Description: SPR binding of peptides to immobilized BMPRII. Particulars: for kon / koff: BMPRII immobilized on COOH5 chip (2000 RU), peptide injected 120 s at 5 μL/min, 5 min dissociation; for kon: read-out: Association Rate Constant ka; for koff: read-out: Dissociation Rate Constant kd. Here is the method:
SPR was performed using SensiQ discovery ((ICX Nomadics, Oklahoma City, OK, USA) SPR. For the affinity experiments, all the samples were dissolved in phosphate-buffered saline (PBS, pH 7.4) (UniRegion Bio-Tech, New Taipei City, Taiwan) containing 150 mM NaCl (St. Louis, MI, USA). The same buffer was also used as the running buffer. To immobilize the BMPRII, the active and reference flow cells of a COOH5 sensor chip (ICX Nomadics, Oklahoma City, OK, USA) carboxylic chip were activated with 1-ethyl-3-(3-(dimethylamino)-propyl) carbodiimide hydrochloride (EDC) and N-hydroxysuccinimide (NHS) (Cytiva, Marlborough, MA, USA) for 5 min. BMPRII protein diluted to 20 μg/mL with acetate buffer (pH4.5) (APOLO biochemical Inc., New York, NY, USA) was injected over the active cell for 3 min at 10 μL/min, resulting in an immobilization level of 2000 RU. Both the reference flow cell and active flow cell were blocked with ethanolamine (Bio Rad, Hercules, CA, USA), pH 8.5 for 6 min. The system was then switched to running buffer, and different concentrations of the peptide were injected for 120 s at 5 μL/min, with 5 min of dissociation. The binding data were analyzed using the BIA-evaluation software 3.0 (BIACORE, Uppasala, Sweden).
We first investigated the binding affinity of these five peptides for BMPRII using SPR. Each peptide was individually passed over a Sensiq […] chip pre-immobilized with BMPRII.
In general terms: Surface plasmon resonance follows binding to a sensor surface in real time, without labels.

The mark [1] stands for this setting: BMPRII immobilized on COOH5 chip, PBS pH 7.4 with 150 mM NaCl, P-02 from saturation binding curve, read-out: Equilibrium Rate Constant KD.

As to `CC[C@H](C)[C@H](NC(=O)[C@H](C)NC(=O)[C@H](CO)NC(=O)[C@@H]1CSSC[C@H](N)C(=O)N[C@@H](CCCCN)C(=O)N[C@@H]([C@@H](C)CC)C(=O)N2CCC[C@H]2C(=O)N[C@@H](CCCCN)C(=O)N[C@@H](C)C(=O)N[C@@H](CO)C(=O)N[C@@H](CO)C(=O)N[C@@H](C(C)C)C(=O)N2CCC[C@H]2C(=O)N[C@@H]([C@@H](C)O)C(=O)N[C@@H](CCC(=O)O)C(=O)N[C@@H](CC(C)C)C(=O)N1)C(=O)N[C@@H](CO)C(=O)N[C@H](C(=O)N[C@@H](CC(C)C)C(=O)N[C@@H](Cc1ccc(O)cc1)C(=O)N[C@@H](CC(C)C)C(N)=O)[C@@H](C)O` [P-03] (H-CKIPKASSVPTELCSAISTLYL-NH2; disulfide 1-14), for the setting “PBS pH 7.4 with 150 mM NaCl”, the kon is 352 M⁻¹ s⁻¹ and the koff was determined as 0.0333 s⁻¹.

For `CC[C@H](C)[C@H](NC(=O)[C@H](C)NC(=O)[C@H](CO)NC(=O)[C@H](CC(C)C)NC(=O)[C@H](CCC(=O)O)NC(=O)[C@@H](NC(=O)[C@@H]1CCCN1C(=O)[C@@H](NC(=O)[C@H](CO)NC(=O)[C@H](CO)NC(=O)[C@H](C)NC(=O)[C@H](CCCCN)NC(=O)[C@@H]1CCCN1C(=O)[C@@H](NC(=O)[C@@H](N)CCCCN)[C@@H](C)CC)C(C)C)[C@@H](C)O)C(=O)N[C@@H](CO)C(=O)N[C@H](C(=O)N[C@@H](CC(C)C)C(=O)N[C@@H](Cc1ccc(O)cc1)C(=O)N[C@@H](CC(C)C)C(N)=O)[C@@H](C)O` [P-01] (H-KIPKASSVPTELSAISTLYL-NH2), where the note is “PBS pH 7.4 with 150 mM NaCl”, the kon was determined as 0.27 M⁻¹ s⁻¹ and the koff was 0.0221 s⁻¹.

Consider `CC[C@H](C)[C@@H]1NC(=O)[C@H](C)NC(=O)[C@H](CO)NC(=O)[C@H](CC(C)C)NC(=O)[C@H](CCC(=O)O)NC(=O)[C@H]([C@@H](C)O)NC(=O)[C@@H]2CCCN2C(=O)[C@H](C(C)C)NC(=O)[C@@H](NC(=O)[C@H](CO)NC(=O)[C@H](CO)NC(=O)[C@H](C)NC(=O)[C@H](CCCCN)NC(=O)[C@@H]2CCCN2C(=O)[C@@H](NC(=O)[C@@H](N)CCCCN)[C@@H](C)CC)CSSC[C@@H](C(N)=O)NC(=O)[C@H](CC(C)C)NC(=O)[C@H](Cc2ccc(O)cc2)NC(=O)[C@H](CC(C)C)NC(=O)[C@H]([C@@H](C)O)NC(=O)[C@H](CO)NC1=O` [P-04] (H-KIPKASSCVPTELSAISTLYLC-NH2; disulfide 8-22), for which, where the note is “PBS pH 7.4 with 150 mM NaCl”, the kon was 460 M⁻¹ s⁻¹ and the koff worked out at 0.0106 s⁻¹. Besides, the pKd under setting [1] is 4.64.

For the molecule “P-02: Cyclic disulfide BMP-2 peptide, N-terminal and C-terminal regions outside the cyclic structure (KIPKCSSVPTELSCISTLYL; not fully specified; Intramolecular disulfide Cys5-Cys14; probably C-terminal amide (Rink amide resin); Parent is BMP-2 mature 73-92 (offset +282) in the P)”, the pKd is 4.09 under setting [1] and 4.09 (as printed in text b26 without unit, read-out: equilibrium rate constant (KD) against BMPRII).

Take `CC[C@H](C)[C@@H]1NC(=O)[C@H](C)NC(=O)[C@H](CO)NC(=O)[C@H](CC(C)C)NC(=O)[C@H](CCC(=O)O)NC(=O)[C@H]([C@@H](C)O)NC(=O)[C@@H]2CCCN2C(=O)[C@H](C(C)C)NC(=O)[C@H](CO)NC(=O)[C@H](CO)NC(=O)[C@H](C)NC(=O)[C@H](CCCCN)NC(=O)[C@@H]2CCCN2C(=O)[C@H]([C@@H](C)CC)NC(=O)[C@H](CCCCN)NC(=O)[C@@H](N)CSSC[C@@H](C(N)=O)NC(=O)[C@H](CC(C)C)NC(=O)[C@H](Cc2ccc(O)cc2)NC(=O)[C@H](CC(C)C)NC(=O)[C@H]([C@@H](C)O)NC(=O)[C@H](CO)NC1=O` [P-05] (H-CKIPKASSVPTELSAISTLYLC-NH2; disulfide 1-22): for the setting “PBS pH 7.4 with 150 mM NaCl”, the kon came to 37.8 M⁻¹ s⁻¹ and the koff was determined as 0.000487 s⁻¹. Besides, under setting [1], the negative logarithm of the Kd (pKd) is 4.89.

In general, pKd refers to the Kd on a negative log10 scale, so that one unit is a factor of ten.
